Data as given in patent publication US20030055010A1, “Preserving active fungicide in an aqueous solution” (priority 1999, published 2003).

Experiment: Rest activity of natamycin over time in water based polymer dispersion mixtures (HPLC)
Format: physicochemical
Excerpt: This example describes a method to prepare a formulation suitable for use as a food coating and which was developed to test the stability of natamycin over time in relation to the added base polymers.
The mixtures were made with an electric top stirrer, type RW 20 DZM, from Janke & Kunkel equipped with a rushton stirrer.
The mixtures were made by adding 500 gram Mowilith DM2KL, 1000 gram of the latex polymer, to be tested together with 4 gram Delvocid® and a protective additive.
The total weight was made up to 2000 gram with tap water.
This crude mixture was mixed for 5 minutes to obtain a homogeneous mixture and was then adjusted to pH 4-7 with ammonia.
The mixture was stored at 18° C. in a closed pot in the dark.
The prepared mixtures were measured over time for the amount of active natamycin using the test described in Example 2.
This Example describes the method that was used to analyze the amount of active natamycin in a water based mixture of several components.
The method was a HPLC analysis based on the International Dairy Federation (Provisional ADF Standard 140, 1987) with a Lichrosorb RP 8 column. Detection was by UV at 303 nm with a range of 0.1-4 mg/L with an injection volume of 20 μl.
Sample preparation was carried out by weighing 2 g prepared formulation with an accuracy of 1 mg in a measuring flask. 4 ml demineralized water (demiwater) was added and the mixture was stirred for […] a homogeneous suspension.
Subsequently 80 ml methanol was added and the mixture was stirred for 10 minutes. After ultrasonic treatment the solution was filled up to 100 ml with demiwater and the diluted and/or filtered (0.2 μm) before injecting.
The amount of active natamycin as ppm was calculated against a series of standards.
To test the stability of natamycin in combination with water based polymer dispersions mixtures, mixtures were made according to Example 1, and the rest activity of natamycin measured according to Example 2. The results are set out in table 1 (rest activity in %).

## C[C@@H]1C/C=C/C=C/C=C/C=C/[C@H](O[C@@H]2O[C@H](C)[C@@H](O)[C@H](N)[C@@H]2O)C[C@@H]2O[C@](O)(C[C@@H](O)C[C@H]3O[C@@H]3/C=C/C(=O)O1)C[C@H](O)[C@H]2C(=O)O [natamycin]
Basepolymer 2, EDTA-disodiumsalt 0 ppm, 0 weeks
  Rest activity of natamycin over time: 100%
Basepolymer 2, EDTA-disodiumsalt 0 ppm, 1 week
  Rest activity of natamycin over time: 70%
Basepolymer 2, EDTA-disodiumsalt 0 ppm, 3 weeks
  Rest activity of natamycin over time: 22%
Basepolymer 2, EDTA-disodiumsalt 0 ppm, 5 weeks
  Rest activity of natamycin over time: 5%
Basepolymer 2, EDTA-disodiumsalt 0 ppm, 7 weeks
  Rest activity of natamycin over time: 2%
Basepolymer 2, EDTA-disodiumsalt 100 ppm, 0 weeks
  Rest activity of natamycin over time: 100%
Basepolymer 2, EDTA-disodiumsalt 100 ppm, 1 week
  Rest activity of natamycin over time: 99%
Basepolymer 2, EDTA-disodiumsalt 100 ppm, 3 weeks
  Rest activity of natamycin over time: 98%
Basepolymer 2, EDTA-disodiumsalt 100 ppm, 5 weeks
  Rest activity of natamycin over time: 88%
Basepolymer 2, EDTA-disodiumsalt 100 ppm, 7 weeks
  Rest activity of natamycin over time: 82%
Basepolymer 2, EDTA-disodiumsalt 250 ppm, 0 weeks
  Rest activity of natamycin over time: 100%
Basepolymer 2, EDTA-disodiumsalt 250 ppm, 1 week
  Rest activity of natamycin over time: 97%
Basepolymer 2, EDTA-disodiumsalt 250 ppm, 3 weeks
  Rest activity of natamycin over time: 95%
Basepolymer 2, EDTA-disodiumsalt 250 ppm, 5 weeks
  Rest activity of natamycin over time: 88%
Basepolymer 2, EDTA-disodiumsalt 250 ppm, 7 weeks
  Rest activity of natamycin over time: 85%
Basepolymer 2, EDTA-disodiumsalt 500 ppm, 0 weeks
  Rest activity of natamycin over time: 100%
Basepolymer 2, EDTA-disodiumsalt 500 ppm, 1 week
  Rest activity of natamycin over time: 95%
Basepolymer 2, EDTA-disodiumsalt 500 ppm, 3 weeks
  Rest activity of natamycin over time: 92%
Basepolymer 2, EDTA-disodiumsalt 500 ppm, 5 weeks
  Rest activity of natamycin over time: 86%
Basepolymer 2, EDTA-disodiumsalt 500 ppm, 7 weeks
  Rest activity of natamycin over time: 80%
Basepolymer 2, EDTA-disodiumsalt 750 ppm, 0 weeks
  Rest activity of natamycin over time: 100%
Basepolymer 2, EDTA-disodiumsalt 750 ppm, 1 week
  Rest activity of natamycin over time: 96%
Basepolymer 2, EDTA-disodiumsalt 750 ppm, 3 weeks
  Rest activity of natamycin over time: 95%
Basepolymer 2, EDTA-disodiumsalt 750 ppm, 5 weeks
  Rest activity of natamycin over time: 88%
Basepolymer 2, EDTA-disodiumsalt 750 ppm, 7 weeks
  Rest activity of natamycin over time: 82%
Basepolymer 2, EDTA-disodiumsalt 1000 ppm, 0 weeks
  Rest activity of natamycin over time: 100%
Basepolymer 2, EDTA-disodiumsalt 1000 ppm, 1 week
  Rest activity of natamycin over time: 96%
Basepolymer 2, EDTA-disodiumsalt 1000 ppm, 3 weeks
  Rest activity of natamycin over time: 95%
Basepolymer 2, EDTA-disodiumsalt 1000 ppm, 5 weeks
  Rest activity of natamycin over time: 88%
Basepolymer 2, EDTA-disodiumsalt 1000 ppm, 7 weeks
  Rest activity of natamycin over time: 81%
Basepolymer 2, EDTA-disodiumsalt 2000 ppm, 0 weeks
  Rest activity of natamycin over time: 100%
Basepolymer 2, EDTA-disodiumsalt 2000 ppm, 1 week
  Rest activity of natamycin over time: 97%
Basepolymer 2, EDTA-disodiumsalt 2000 ppm, 3 weeks
  Rest activity of natamycin over time: 94%
Basepolymer 2, EDTA-disodiumsalt 2000 ppm, 5 weeks
  Rest activity of natamycin over time: 88%
Basepolymer 2, EDTA-disodiumsalt 2000 ppm, 7 weeks
  Rest activity of natamycin over time: 79%
Basepolymer 2, EDTA-disodiumsalt 5000 ppm, 0 weeks
  Rest activity of natamycin over time: 100%
Basepolymer 2, EDTA-disodiumsalt 5000 ppm, 1 week
  Rest activity of natamycin over time: 97%
Basepolymer 2, EDTA-disodiumsalt 5000 ppm, 3 weeks
  Rest activity of natamycin over time: 95%
Basepolymer 2, EDTA-disodiumsalt 5000 ppm, 5 weeks
  Rest activity of natamycin over time: 88%
Basepolymer 2, EDTA-disodiumsalt 5000 ppm, 7 weeks
  Rest activity of natamycin over time: 81%
Basepolymer 3, With BHA 1000 ppm, 1 week
  Rest activity of natamycin over time: 96%
Basepolymer 3, With BHA 1000 ppm, 2 weeks
  Rest activity of natamycin over time: 92%
Basepolymer 3, With BHA 1000 ppm, 4 weeks
  Rest activity of natamycin over time: 84%
Basepolymer 3, With tocopherol 1000 ppm, 1 week
  Rest activity of natamycin over time: 92%
Basepolymer 3, With tocopherol 1000 ppm, 2 weeks
  Rest activity of natamycin over time: 83%
Basepolymer 3, With tocopherol 1000 ppm, 4 weeks
  Rest activity of natamycin over time: 76%
Basepolymer 3, Without additive, 1 week
  Rest activity of natamycin over time: 88%
Basepolymer 3, Without additive, 2 weeks
  Rest activity of natamycin over time: 70%
Basepolymer 3, Without additive, 4 weeks
  Rest activity of natamycin over time: 50%
